# Measured values: ChEMBL document CHEMBL4342404, “Anti-cholinesterase hybrids as multi-target-directed ligands against Alzheimer's disease (1998-2018)” (Bioorg Med Chem, 2019)
# Biological target: T1, Acetylcholinesterase (Rattus norvegicus, UniProt P37136)
# T1 sequence (P37136 whole entry): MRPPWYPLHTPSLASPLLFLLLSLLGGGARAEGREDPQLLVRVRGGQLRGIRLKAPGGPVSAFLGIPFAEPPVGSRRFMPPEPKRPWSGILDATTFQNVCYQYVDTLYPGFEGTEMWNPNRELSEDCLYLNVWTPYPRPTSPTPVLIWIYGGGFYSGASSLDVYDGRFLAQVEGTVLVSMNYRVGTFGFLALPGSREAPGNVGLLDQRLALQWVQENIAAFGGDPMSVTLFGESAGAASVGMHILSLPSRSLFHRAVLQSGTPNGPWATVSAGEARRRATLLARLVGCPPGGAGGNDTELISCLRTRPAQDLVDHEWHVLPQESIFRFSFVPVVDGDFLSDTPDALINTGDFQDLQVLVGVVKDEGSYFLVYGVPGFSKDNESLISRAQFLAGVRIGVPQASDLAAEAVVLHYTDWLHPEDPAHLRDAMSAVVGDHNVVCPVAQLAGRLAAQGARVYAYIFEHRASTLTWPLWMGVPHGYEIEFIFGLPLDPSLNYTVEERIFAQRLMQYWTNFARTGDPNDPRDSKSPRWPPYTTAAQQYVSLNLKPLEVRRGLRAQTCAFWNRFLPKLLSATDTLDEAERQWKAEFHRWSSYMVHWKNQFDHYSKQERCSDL
# Experiment: Antagonist activity at Acetylcholinesterase in Sprague-Dawley rat phrenic nerve-hemidiaphragm assessed as reversal of d-tubocurarine induced neuromuscular blockade after 15 mins
# Conditions: read-out: I50
row,SMILES,IC50 [nM]
1,CC1=CC2Cc3nc4cc(Cl)ccc4c(N)c3C(C1)C2 (racemic) [HUPRINE Y],84.3
2,CCC1=CC2Cc3nc4ccccc4c(N)c3C(C1)C2 (racemic),84
3,CC1=CC2Cc3nc4ccccc4c(N)c3C(C1)C2 (racemic),176
4,"CC1=CC2Cc3nc4cc(Cl)ccc4c(N)c3C(C1)C2 (single isomer, unassigned; (-)) [HUPRINE Y]",31.6
5,CC1=C[C@@H]2Cc3nc4cc(F)ccc4c(N)c3[C@H](C1)C2,48.6

# Species on record: Homo sapiens
# Experiment: Selectivity index, ratio of IC50 for human plasma butyrylcholinesterase to IC50 for human erythrocyte acetylcholinesterase
# Conditions: not given
row,SMILES,Selectivity Index
1,COc1cc2oc(-c3ccc(NCCCCNc4c5c(nc6cc(Cl)ccc46)CCCC5)cc3)cc(=O)c2c(OC)c1OC,1690
2,COc1cc2oc(-c3ccc(NCCNc4c5c(nc6cc(Cl)ccc46)CCCC5)cc3)cc(=O)c2c(OC)c1OC,742
3,COc1cc2oc(-c3ccc(NCCCNc4c5c(nc6cc(Cl)ccc46)CCCC5)cc3)cc(=O)c2c(OC)c1OC,92

# Biological target: Acetylcholinesterase (Electrophorus electricus) (UniProt O42275)
# Experiment: Inhibition of electric eel AChE-induced amyloid beta 1 to 40 (unknown origin) aggregation at 100 uM incubated for 8 hrs by thioflavin-T fluorescence method relative to control
# Conditions: not given
# Acetylcholinesterase (Electrophorus electricus), sequence (O42275 24-633 limits assumed): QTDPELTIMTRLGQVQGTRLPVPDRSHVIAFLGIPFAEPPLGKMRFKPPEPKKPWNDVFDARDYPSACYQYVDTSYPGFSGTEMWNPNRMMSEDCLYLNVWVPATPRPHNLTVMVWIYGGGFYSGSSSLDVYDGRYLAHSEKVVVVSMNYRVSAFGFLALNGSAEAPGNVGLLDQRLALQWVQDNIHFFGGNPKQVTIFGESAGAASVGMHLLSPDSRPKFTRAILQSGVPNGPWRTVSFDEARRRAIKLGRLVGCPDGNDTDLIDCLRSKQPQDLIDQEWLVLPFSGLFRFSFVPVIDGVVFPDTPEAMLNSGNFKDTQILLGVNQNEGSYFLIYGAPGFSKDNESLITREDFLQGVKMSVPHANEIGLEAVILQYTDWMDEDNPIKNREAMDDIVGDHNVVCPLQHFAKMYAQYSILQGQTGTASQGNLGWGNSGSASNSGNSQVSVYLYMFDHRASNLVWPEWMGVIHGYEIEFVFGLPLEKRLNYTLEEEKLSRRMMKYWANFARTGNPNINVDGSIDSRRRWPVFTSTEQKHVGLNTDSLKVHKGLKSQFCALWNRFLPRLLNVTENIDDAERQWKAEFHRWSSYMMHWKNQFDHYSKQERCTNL
row,SMILES,inhibition [%]
1,COc1ccc2[nH]cc(CCNC(=O)/C=C\C(=O)Nc3ccc4c(c3)C(=O)c3cccc5ccnc-4c35)c2c1,50.4
2,O=C(/C=C/C(=O)Nc1ccc2c(c1)C(=O)c1cccc3ccnc-2c13)NCCc1c[nH]c2ccc(F)cc12,60.5
3,O=C(/C=C\C(=O)Nc1ccc2c(c1)C(=O)c1cccc3ccnc-2c13)NCCc1c[nH]c2ccc(F)cc12,32.5
4,Cc1ccc2[nH]cc(CCNC(=O)/C=C\C(=O)Nc3ccc4c(c3)C(=O)c3cccc5ccnc-4c35)c2c1,57.7

# Biological target: Acetylcholinesterase (Homo sapiens, UniProt P22303)
# Experiment: Potency index, ratio of tacrine IC50 for human erythrocyte acetylcholinesterase to compound IC50 for homogenate acetylcholinesterase
# Conditions: not given
# Acetylcholinesterase (Homo sapiens, UniProt P22303), sequence (P22303 whole entry): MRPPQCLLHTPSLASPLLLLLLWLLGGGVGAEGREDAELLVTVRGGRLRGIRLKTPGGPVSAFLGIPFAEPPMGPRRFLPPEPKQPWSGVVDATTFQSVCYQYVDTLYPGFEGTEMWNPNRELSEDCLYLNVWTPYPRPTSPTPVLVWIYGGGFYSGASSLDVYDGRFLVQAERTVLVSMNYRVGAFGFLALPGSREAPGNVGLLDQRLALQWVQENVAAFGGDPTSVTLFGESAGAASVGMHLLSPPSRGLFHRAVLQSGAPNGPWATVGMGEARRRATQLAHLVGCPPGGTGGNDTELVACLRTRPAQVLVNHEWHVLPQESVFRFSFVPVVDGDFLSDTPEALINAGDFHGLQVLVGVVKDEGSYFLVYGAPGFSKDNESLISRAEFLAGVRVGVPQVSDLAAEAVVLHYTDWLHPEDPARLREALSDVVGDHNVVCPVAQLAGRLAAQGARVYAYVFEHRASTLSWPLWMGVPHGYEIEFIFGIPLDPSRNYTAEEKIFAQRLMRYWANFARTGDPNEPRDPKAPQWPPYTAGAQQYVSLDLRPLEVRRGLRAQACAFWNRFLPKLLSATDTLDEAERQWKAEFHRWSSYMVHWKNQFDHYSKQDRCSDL
row,SMILES,Ratio IC50
1,O=C(CCCCCCCNc1c2c(nc3cc(Cl)cc(Cl)c13)CCCC2)NCCc1c[nH]c2ccccc12,70 to 43000
2,O=C(CCCCCNc1c2c(nc3c(Cl)cccc13)CCCC2)NCCc1c[nH]c2ccccc12,70 to 43000
3,O=C(CCCCCCCNc1c2c(nc3ccccc13)CCCC2)NCCc1c[nH]c2ccc(O)cc12,70 to 43000
4,O=C(CCCCCNc1c2c(nc3ccccc13)CCCC2)NCCc1c[nH]c2ccccc12,70 to 43000
5,COc1ccc2[nH]cc(CCNC(=O)CCCCCNc3c4c(nc5cc(Cl)ccc35)CCCC4)c2c1,70 to 43000
6,O=C(CCCCNc1c2c(nc3ccccc13)CCCC2)NCCc1c[nH]c2ccccc12,70 to 43000
7,O=C(CCCCCNc1c2c(nc3ccc(F)cc13)CCCC2)NCCc1c[nH]c2ccccc12,70 to 43000
8,O=C(CCCCCNc1c2c(nc3ccccc13)CCCC2)NCCc1c[nH]c2ccc(O)cc12,70 to 43000
9,COc1ccc2[nH]cc(CCNC(=O)CCCCCCCNc3c4c(nc5ccccc35)CCCC4)c2c1,70 to 43000
10,S=C(CCCCCNc1c2c(nc3ccccc13)CCCC2)NCCc1c[nH]c2ccccc12,70 to 43000
11,O=C(CCCCCCNc1c2c(nc3cc(Cl)ccc13)CCCC2)NCCc1c[nH]c2ccccc12,70 to 43000
12,O=C(CCCCCCNc1c2c(nc3cc(Cl)cc(Cl)c13)CCCC2)NCCc1c[nH]c2ccccc12,70 to 43000
13,O=C(CCCCCNc1c2c(nc3cc(Cl)cc(Cl)c13)CCCC2)NCCc1c[nH]c2ccccc12,70 to 43000
14,S=C(CCCCCCCNc1c2c(nc3ccccc13)CCCC2)NCCc1c[nH]c2ccccc12,70 to 43000
15,O=C(CCCCCCNc1c2c(nc3ccccc13)CCCC2)NCCc1c[nH]c2ccccc12,70 to 43000
16,COc1ccc2[nH]cc(CCNC(=O)CCCCCNc3c4c(nc5cc(Cl)cc(Cl)c35)CCCC4)c2c1,70 to 43000
17,COc1ccc2[nH]cc(CCNC(=O)CCCCCCNc3c4c(nc5cc(Cl)cc(Cl)c35)CCCC4)c2c1,70 to 43000
18,O=C(CCCCCCCNc1c2c(nc3ccccc13)CCCC2)NCCc1c[nH]c2ccccc12,70 to 43000
19,COc1ccc2[nH]cc(CCNC(=O)CCCCCNc3c4c(nc5ccccc35)CCCC4)c2c1,70 to 43000
20,O=C(CCCCCNc1c2c(nc3cc(Cl)ccc13)CCCC2)NCCc1c[nH]c2ccccc12,70 to 43000
21,COc1ccc2[nH]cc(CCNC(=O)CCCCCCNc3c4c(nc5ccccc35)CCCC4)c2c1,70 to 43000
22,COc1ccc2[nH]cc(CCNC(=O)CCCCCNc3c4c(nc5cccc(Cl)c35)CCCC4)c2c1,70 to 43000
23,COc1ccc2[nH]cc(CCNC(=O)CCCCNc3c4c(nc5ccccc35)CCCC4)c2c1,70 to 43000

# Biological target: Cholinesterase (Homo sapiens, UniProt P06276)
# Experiment: Inhibition of human serum butyrylcholinesterase using butyrylthiocholine iodide as substrate preincubated for 20 mins followed by substrate addition by Ellman's method
# Conditions: not given
# Cholinesterase, sequence (P06276 whole entry): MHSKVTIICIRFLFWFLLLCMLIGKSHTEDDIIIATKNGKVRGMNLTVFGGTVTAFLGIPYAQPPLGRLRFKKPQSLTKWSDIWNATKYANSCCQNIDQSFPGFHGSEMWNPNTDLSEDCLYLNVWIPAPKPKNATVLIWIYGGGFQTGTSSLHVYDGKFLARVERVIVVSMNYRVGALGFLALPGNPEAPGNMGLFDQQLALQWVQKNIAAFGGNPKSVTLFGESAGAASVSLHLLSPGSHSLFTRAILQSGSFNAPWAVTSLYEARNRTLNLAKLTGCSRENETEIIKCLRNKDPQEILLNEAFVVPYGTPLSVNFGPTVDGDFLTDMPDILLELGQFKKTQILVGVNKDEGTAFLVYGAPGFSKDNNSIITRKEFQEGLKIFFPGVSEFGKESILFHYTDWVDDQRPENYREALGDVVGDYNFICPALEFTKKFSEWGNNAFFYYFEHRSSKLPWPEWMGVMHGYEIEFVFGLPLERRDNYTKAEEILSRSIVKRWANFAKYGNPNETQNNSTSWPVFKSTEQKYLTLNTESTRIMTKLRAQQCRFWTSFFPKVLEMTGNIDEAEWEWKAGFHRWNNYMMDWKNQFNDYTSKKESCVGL
row,SMILES,IC50 [nM]
1,c1ccc2c(NCCSSCCNc3c4c(nc5ccccc35)CCCC4)c3c(nc2c1)CCCC3,5.66

# Biological target: Acetylcholinesterase (Electrophorus electricus, UniProt O42275)
# Experiment: Inhibition of electric eel AChE using acetylthiocholine iodide as substrate preincubated for 15 mins followed by substrate addition and measured at 1 min intervals by Ellman's method
# Conditions: not given
# Acetylcholinesterase (Electrophorus electricus, UniProt O42275), sequence (O42275 whole entry): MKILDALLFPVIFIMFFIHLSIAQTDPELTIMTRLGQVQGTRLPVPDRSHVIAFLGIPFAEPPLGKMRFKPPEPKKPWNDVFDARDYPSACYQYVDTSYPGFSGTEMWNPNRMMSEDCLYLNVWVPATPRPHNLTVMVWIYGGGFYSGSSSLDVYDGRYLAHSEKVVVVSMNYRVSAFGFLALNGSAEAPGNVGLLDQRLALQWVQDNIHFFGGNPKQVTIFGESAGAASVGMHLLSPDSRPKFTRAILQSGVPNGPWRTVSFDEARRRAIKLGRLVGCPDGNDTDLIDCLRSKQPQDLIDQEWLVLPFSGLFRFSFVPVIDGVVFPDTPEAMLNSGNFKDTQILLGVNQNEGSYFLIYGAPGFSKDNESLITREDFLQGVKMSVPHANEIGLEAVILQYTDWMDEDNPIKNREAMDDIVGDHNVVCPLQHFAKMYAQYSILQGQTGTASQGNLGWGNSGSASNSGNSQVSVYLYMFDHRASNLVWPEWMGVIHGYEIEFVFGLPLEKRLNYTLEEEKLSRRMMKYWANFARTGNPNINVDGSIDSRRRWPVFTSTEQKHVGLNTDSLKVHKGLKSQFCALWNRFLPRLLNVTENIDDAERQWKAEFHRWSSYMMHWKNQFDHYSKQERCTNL
row,SMILES,IC50 [nM]
1,COc1ccc2[nH]cc(CCNC(=O)/C=C\C(=O)Nc3ccc4c(c3)C(=O)c3cccc5ccnc-4c35)c2c1,6100
2,O=C(/C=C/C(=O)Nc1ccc2c(c1)C(=O)c1cccc3ccnc-2c13)NCCc1c[nH]c2ccc(F)cc12,2370
3,O=C(/C=C\C(=O)Nc1ccc2c(c1)C(=O)c1cccc3ccnc-2c13)NCCc1c[nH]c2ccc(F)cc12,15000
4,Cc1ccc2[nH]cc(CCNC(=O)/C=C\C(=O)Nc3ccc4c(c3)C(=O)c3cccc5ccnc-4c35)c2c1,5100

# Biological target: Sodium-dependent serotonin transporter (Rattus norvegicus, UniProt P31652)
# Experiment: Inhibition of rat synaptosome SERT assessed as reduction in [3H]5-HT uptake
# Conditions: not given
# Sodium-dependent serotonin transporter, sequence (P31652 whole entry): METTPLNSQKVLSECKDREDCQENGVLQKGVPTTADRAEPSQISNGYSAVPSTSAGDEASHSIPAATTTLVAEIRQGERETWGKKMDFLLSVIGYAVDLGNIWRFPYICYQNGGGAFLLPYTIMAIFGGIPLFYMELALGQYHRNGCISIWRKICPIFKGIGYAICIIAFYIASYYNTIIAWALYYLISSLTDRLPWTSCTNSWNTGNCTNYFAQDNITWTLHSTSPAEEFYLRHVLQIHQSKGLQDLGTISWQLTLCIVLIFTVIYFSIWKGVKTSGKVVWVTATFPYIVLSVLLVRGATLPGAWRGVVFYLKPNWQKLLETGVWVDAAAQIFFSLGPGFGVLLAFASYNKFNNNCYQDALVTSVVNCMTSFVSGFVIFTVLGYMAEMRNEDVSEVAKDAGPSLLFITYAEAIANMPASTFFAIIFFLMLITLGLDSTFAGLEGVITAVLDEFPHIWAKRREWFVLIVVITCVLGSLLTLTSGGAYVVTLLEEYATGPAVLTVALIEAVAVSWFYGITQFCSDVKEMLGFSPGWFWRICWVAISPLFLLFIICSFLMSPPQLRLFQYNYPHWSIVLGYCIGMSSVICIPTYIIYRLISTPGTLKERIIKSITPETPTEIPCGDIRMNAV
row,SMILES,IC50 [nM]
1,CN[C@@H](CCOc1ccc([N+](=O)[O-])cc1)c1ccc(OC(=O)N(C)C)cc1,42
2,CN(C)C(=O)Oc1ccc2c(c1)C=CCN[C@@H]2CCOc1ccc([N+](=O)[O-])cc1,6
3,CN(C)C(=O)Oc1ccc2c(c1)C=CCN(C)[C@H]2CCOc1ccc([N+](=O)[O-])cc1,930
4,CN(C)C(=O)Oc1ccc([C@@H](N)CCOc2ccc([N+](=O)[O-])cc2)cc1,42
5,CNC(CCOc1ccc([N+](=O)[O-])cc1)c1ccc(OC(=O)N(C)C)cc1 (racemic),44
6,CN[C@H](CCOc1ccc([N+](=O)[O-])cc1)c1ccc(OC(=O)N(C)C)cc1,135

# Biological target: Butyrylcholinesterase (Rattus norvegicus) (UniProt Q9JKC1)
# Experiment: Inhibition of rat serum butyrylcholinesterase using butyrylthiocholine iodide as substrate at 50 uM incubated for 15 mins by Ellman's method relative to control
# Conditions: not given
# Butyrylcholinesterase (Rattus norvegicus), sequence (Q9JKC1 as listed by the source): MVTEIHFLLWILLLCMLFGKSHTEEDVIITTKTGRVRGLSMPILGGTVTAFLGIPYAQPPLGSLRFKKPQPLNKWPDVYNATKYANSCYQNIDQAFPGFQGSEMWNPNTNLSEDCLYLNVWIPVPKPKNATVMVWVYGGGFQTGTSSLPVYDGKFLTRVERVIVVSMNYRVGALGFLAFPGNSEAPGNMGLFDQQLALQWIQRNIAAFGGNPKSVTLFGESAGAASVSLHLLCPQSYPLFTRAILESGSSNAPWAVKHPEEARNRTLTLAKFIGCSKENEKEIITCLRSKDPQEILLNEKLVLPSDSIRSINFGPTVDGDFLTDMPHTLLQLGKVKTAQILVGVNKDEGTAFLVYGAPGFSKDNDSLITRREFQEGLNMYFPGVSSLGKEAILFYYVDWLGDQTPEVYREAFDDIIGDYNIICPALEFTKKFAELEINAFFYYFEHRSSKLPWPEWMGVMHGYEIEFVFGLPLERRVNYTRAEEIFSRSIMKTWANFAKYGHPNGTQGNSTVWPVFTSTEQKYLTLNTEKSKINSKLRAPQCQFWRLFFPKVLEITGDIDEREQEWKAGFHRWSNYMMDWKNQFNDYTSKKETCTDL
row,SMILES,inhibition [%]
1,CCN(CC)Cc1ccc(/C=C/c2cnc(C)c3c2COC(C)(C)O3)cc1O,8.9

# Tested on: not listed separately
# Experiment: Antioxidant activity of compound by ORAC-FL assay relative to trolox
# Type: functional
# Conditions: not given
row,SMILES,Ratio
1,COc1cc(/C=C/C(=O)N(CC(=O)Nc2ccc3ccccc3c2)C2CCN(Cc3ccccc3)CC2)ccc1O,4.8 to 8.71
2,COc1cc(/C=C/C(=O)N(CCC2CCN(Cc3ccccc3)CC2)CC(=O)Nc2ccc3ccccc3c2)ccc1O,4.8 to 8.71
3,COc1ccc2[nH]cc(CCNC(=O)CN(C(=O)/C=C/c3ccc(O)c(OC)c3)C3CCN(Cc4ccccc4)CC3)c2c1,4.8 to 8.71
4,COc1cc(/C=C/C(=O)N(CCCC2CCN(Cc3ccccc3)CC2)CC(=O)Nc2c(C)cccc2Cl)ccc1O,4.8 to 8.71
5,COc1cc(/C=C/C(=O)N(CCCC2CCN(Cc3ccccc3)CC2)CC(=O)NCc2ccccc2)ccc1O,4.8 to 8.71
6,COc1cc(/C=C/C(=O)N(CCC2CCN(Cc3ccccc3)CC2)CC(=O)Nc2c(C)cccc2Cl)ccc1O,4.8 to 8.71
7,COc1cc(/C=C/C(=O)N(CC(=O)Nc2c(C)cccc2Cl)C2CCN(Cc3ccccc3)CC2)ccc1O,4.8 to 8.71
8,COc1cc(/C=C/C(=O)N(CCCC2CCN(Cc3ccccc3)CC2)CC(=O)Nc2ccc3ccccc3c2)ccc1O,4.8 to 8.71
9,COc1cc(/C=C/C(=O)N(CC(=O)NCc2ccccc2)C2CCN(Cc3ccccc3)CC2)ccc1O,4.8 to 8.71
10,COc1cc(/C=C/C(=O)N(CCC2CCN(Cc3ccccc3)CC2)CC(=O)NCc2ccccc2)ccc1O,4.8 to 8.71

# Biological target: T2, Acetylcholinesterase (Mus musculus, UniProt P21836)
# T2 sequence (P21836 whole entry): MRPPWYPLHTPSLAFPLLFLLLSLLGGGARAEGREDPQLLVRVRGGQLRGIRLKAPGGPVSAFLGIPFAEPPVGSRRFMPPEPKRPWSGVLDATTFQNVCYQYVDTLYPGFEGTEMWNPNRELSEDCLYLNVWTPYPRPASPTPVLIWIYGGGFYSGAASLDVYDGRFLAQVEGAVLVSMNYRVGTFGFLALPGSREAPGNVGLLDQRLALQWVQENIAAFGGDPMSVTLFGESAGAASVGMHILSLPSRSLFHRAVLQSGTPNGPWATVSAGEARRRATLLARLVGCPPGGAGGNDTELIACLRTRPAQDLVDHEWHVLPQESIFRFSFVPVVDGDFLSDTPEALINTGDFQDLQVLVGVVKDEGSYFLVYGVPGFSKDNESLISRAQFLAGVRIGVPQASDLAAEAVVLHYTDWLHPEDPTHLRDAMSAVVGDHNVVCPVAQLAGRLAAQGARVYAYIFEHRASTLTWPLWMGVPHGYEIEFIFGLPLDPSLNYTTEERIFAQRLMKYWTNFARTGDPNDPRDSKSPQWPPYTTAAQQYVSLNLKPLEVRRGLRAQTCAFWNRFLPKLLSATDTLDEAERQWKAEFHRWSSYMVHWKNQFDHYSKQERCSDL
# Experiment: Inhibition of mouse brain acetylcholinesterase by Ellman's method
# Conditions: not given
row,SMILES,IC50 [nM]
1,CN[C@@H](CCOc1ccc([N+](=O)[O-])cc1)c1ccc(OC(=O)N(C)C)cc1,101
2,CN(C)C(=O)Oc1ccc2c(c1)C=CCN[C@@H]2CCOc1ccc([N+](=O)[O-])cc1,14
3,CN(C)C(=O)Oc1ccc([C@@H](N)CCOc2ccc([N+](=O)[O-])cc2)cc1,101
4,CNC(CCOc1ccc([N+](=O)[O-])cc1)c1ccc(OC(=O)N(C)C)cc1 (racemic),125
5,CN[C@H](CCOc1ccc([N+](=O)[O-])cc1)c1ccc(OC(=O)N(C)C)cc1,143
